The results in this text go back to the supplement of paper PMC11208160.
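Further: IS621 bridge recombinase in Escherichia coli cells against a fixed T5 target plasmid.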

The series can be described thus: recombinant UMI read abundance after kanamycin selection (control-corrected) (log10(CPM+1)); higher = more efficient recombination; extreme values may be limits of the assay; sequences stand for … in AGTGCAGAGAAAATCGGCCAGTTTTCTCTGCCTGCAGTCCGCATGCCGTGGGACCCCTTGGGTTCTAACCTGTTGCCTAGATTTATGCAGCGGACTGCCTTTCTCCCAAAGTGATAAACCGG…AGGTTGGTTTCACT; site = the 11-nt donor. The procedure, abridged:
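Sequencing read counts were converted to CPM, averaged over two replicates and scaled by control-derived factors. Results are given as log10(CPM+1). The reads covered the donor–target junction of recombinant UMIs from a pooled Escherichia coli screen of donor and donor-binding-loop pairs for the IS621 bridge recombinase.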
For “GGTATGTCATGGACCGGTTTTCCCGGTAATCCGTATTTGTT (site GGTATGTCTAA)”, the “recombinant UMI read abundance (log10)” value came out at 0.586.

On to “GGTATTACATGGACCGGTTTTCCCGGTAATCCGTATTTGAG (site GGTATTACTCT)”, for which the “recombinant UMI read abundance (log10)” value is 0.

“GGTCACACATGGACCGGTTTTCCCGGTAATCCGTATTTGTC (site GGTCACACTGA)”: the “recombinant UMI read abundance (log10)” value turned out to be 2.3.

For “GGTCACCCATGGACCGGTTTTCCCGGTAATCCGTATTTGTT (site GGACACCCTAA)”, the “recombinant UMI read abundance (log10)” value came to 0.

As to “GGTCACCCATGGACCGGTTTTCCCGGTAATCCGTATTTGTT (site GGCCACCCTAA)”, the “recombinant UMI read abundance (log10)” value is 0.0117.

For “GGTCACCCATGGACCGGTTTTCCCGGTAATCCGTATTTGTT (site GGGCACCCTAA)”, the “recombinant UMI read abundance (log10)” value is 0.0126.

On to “GGTCACCCATGGACCGGTTTTCCCGGTAATCCGTATTTGTT (site GGTCACCCTAA)”, for which the “recombinant UMI read abundance (log10)” value worked out at 0.00231.

For “GGTCAGCCATGGACCGGTTTTCCCGGTAATCCGTATTTGGG (site GGTCAGCCTCC)”, the “recombinant UMI read abundance (log10)” value worked out at 0.00726.

For the sequence “GGTCCAACATGGACCGGTTTTCCCGGTAATCCGTATTTGCA (site GGTCCAACTTA)”, the “recombinant UMI read abundance (log10)” value is 0.0117.

“GGTCCAACATGGACCGGTTTTCCCGGTAATCCGTATTTGCA (site GGTCCAACTTC)”: the “recombinant UMI read abundance (log10)” value came out at 0.107.

As to “GGTCCAACATGGACCGGTTTTCCCGGTAATCCGTATTTGCA (site GGTCCAACTTG)”, the “recombinant UMI read abundance (log10)” value was found to be 0.

Take “GGTCCAACATGGACCGGTTTTCCCGGTAATCCGTATTTGCA (site GGTCCAACTTT)”: the “recombinant UMI read abundance (log10)” value stood at 0.0134.

With “GGTCCAACATGGACCGGTTTTCCCGGTAATCCGTATTTGTA (site AGTCCAACTTA)”, the “recombinant UMI read abundance (log10)” value was found to be 0.0127.

Turning to “GGTCCAACATGGACCGGTTTTCCCGGTAATCCGTATTTGTA (site CGTCCAACTTA)”, the “recombinant UMI read abundance (log10)” value is 0.

Take “GGTCCAACATGGACCGGTTTTCCCGGTAATCCGTATTTGTA (site GATCCAACTTA)”: the “recombinant UMI read abundance (log10)” value was 0.0069.

Consider “GGTCCAACATGGACCGGTTTTCCCGGTAATCCGTATTTGTA (site GCTCCAACTTA)”, for which the “recombinant UMI read abundance (log10)” value turned out to be 0.00409.

Regarding “GGTCCAACATGGACCGGTTTTCCCGGTAATCCGTATTTGTA (site GGACCAACTTA)”, the “recombinant UMI read abundance (log10)” value came to 0.00547.

For the sequence “GGTCCAACATGGACCGGTTTTCCCGGTAATCCGTATTTGTA (site GGCCCAACTTA)”, the “recombinant UMI read abundance (log10)” value was 0.0162.

Take “GGTCCAACATGGACCGGTTTTCCCGGTAATCCGTATTTGTA (site GGGCCAACTTA)”: the “recombinant UMI read abundance (log10)” value amounted to 0.00345.

In the case of “GGTCCAACATGGACCGGTTTTCCCGGTAATCCGTATTTGTA (site GGTACAACTTA)”, the “recombinant UMI read abundance (log10)” value was determined as 0.00331.

As for “GGTCCAACATGGACCGGTTTTCCCGGTAATCCGTATTTGTA (site GGTCAAACTTA)”, the “recombinant UMI read abundance (log10)” value was determined as 0.0208.

Consider “GGTCCAACATGGACCGGTTTTCCCGGTAATCCGTATTTGTA (site GGTCCAACTAA)”, for which the “recombinant UMI read abundance (log10)” value amounted to 0.0196.

For the sequence “GGTCCAACATGGACCGGTTTTCCCGGTAATCCGTATTTGTA (site GGTCCAACTCA)”, the “recombinant UMI read abundance (log10)” value stood at 0.0175.

Turning to “GGTCCAACATGGACCGGTTTTCCCGGTAATCCGTATTTGTA (site GGTCCAACTGA)”, the “recombinant UMI read abundance (log10)” value worked out at 0.

For “GGTCCAACATGGACCGGTTTTCCCGGTAATCCGTATTTGTA (site GGTCCAACTTA)”, the “recombinant UMI read abundance (log10)” value was 0.431.

Consider “GGTCCAACATGGACCGGTTTTCCCGGTAATCCGTATTTGTA (site GGTCCAACTTC)”, for which the “recombinant UMI read abundance (log10)” value worked out at 0.0212.

On to “GGTCCAACATGGACCGGTTTTCCCGGTAATCCGTATTTGTA (site GGTCCAACTTG)”, for which the “recombinant UMI read abundance (log10)” value stood at 0.016.

Regarding “GGTCCAACATGGACCGGTTTTCCCGGTAATCCGTATTTGTA (site GGTCCAACTTT)”, the “recombinant UMI read abundance (log10)” value was found to be 0.0114.

As to “GGTCCAACATGGACCGGTTTTCCCGGTAATCCGTATTTGTA (site GGTCCACCTTA)”, the “recombinant UMI read abundance (log10)” value was found to be 0.011.

As to “GGTCCAACATGGACCGGTTTTCCCGGTAATCCGTATTTGTA (site GGTCCAGCTTA)”, the “recombinant UMI read abundance (log10)” value was found to be 0.015.

Consider “GGTCCAACATGGACCGGTTTTCCCGGTAATCCGTATTTGTA (site GGTCCATCTTA)”, for which the “recombinant UMI read abundance (log10)” value was 0.583.

“GGTCCAACATGGACCGGTTTTCCCGGTAATCCGTATTTGTA (site GGTCCCACTTA)”: the “recombinant UMI read abundance (log10)” value came out at 0.00585.

With “GGTCCAACATGGACCGGTTTTCCCGGTAATCCGTATTTGTA (site GGTCCGACTTA)”, the “recombinant UMI read abundance (log10)” value is 0.0188.

For the sequence “GGTCCAACATGGACCGGTTTTCCCGGTAATCCGTATTTGTA (site GGTCCTACTTA)”, the “recombinant UMI read abundance (log10)” value is 0.00929.

“GGTCCAACATGGACCGGTTTTCCCGGTAATCCGTATTTGTA (site GGTCGAACTTA)”: the “recombinant UMI read abundance (log10)” value worked out at 0.0172.

Consider “GGTCCAACATGGACCGGTTTTCCCGGTAATCCGTATTTGTA (site GGTCTAACTTA)”, for which the “recombinant UMI read abundance (log10)” value stood at 0.00385.

For the sequence “GGTCCAACATGGACCGGTTTTCCCGGTAATCCGTATTTGTA (site GGTGCAACTTA)”, the “recombinant UMI read abundance (log10)” value came out at 0.0122.

On to “GGTCCAACATGGACCGGTTTTCCCGGTAATCCGTATTTGTA (site GGTTCAACTTA)”, for which the “recombinant UMI read abundance (log10)” value turned out to be 0.0111.

Turning to “GGTCCAACATGGACCGGTTTTCCCGGTAATCCGTATTTGTA (site GTTCCAACTTA)”, the “recombinant UMI read abundance (log10)” value amounted to 0.0101.

Consider “GGTCCAACATGGACCGGTTTTCCCGGTAATCCGTATTTGTA (site TGTCCAACTTA)”, for which the “recombinant UMI read abundance (log10)” value is 0.00249.

Take “GGTCCAACATGGACCGGTTTTCCCGGTAATCCGTATTTGTG (site GGTCCAACTAA)”: the “recombinant UMI read abundance (log10)” value was 0.00832.

With “GGTCCAACATGGACCGGTTTTCCCGGTAATCCGTATTTGTG (site GGTCCAACTCA)”, the “recombinant UMI read abundance (log10)” value amounted to 0.00564.

In the case of “GGTCCAACATGGACCGGTTTTCCCGGTAATCCGTATTTGTG (site GGTCCAACTGA)”, the “recombinant UMI read abundance (log10)” value came to 0.

On to “GGTCCAACATGGACCGGTTTTCCCGGTAATCCGTATTTGTG (site GGTCCAACTTA)”, for which the “recombinant UMI read abundance (log10)” value was 0.00906.

Regarding “GGTCCCTCATGGACCGGTTTTCCCGGTAATCCGTATTTGTG (site GGTCCCTCTCA)”, the “recombinant UMI read abundance (log10)” value was 0.413.

Take “GGTGAACCATGGACCGGTTTTCCCGGTAATCCGTATTTGGG (site GGTGAACCTCC)”: the “recombinant UMI read abundance (log10)” value was 0.

For “GGTGAAGCATGGACCGGTTTTCCCGGTAATCCGTATTTGAG (site GGTGAAGCTCT)”, the “recombinant UMI read abundance (log10)” value amounted to 1.82.

Consider “GGTGACTCATGGACCGGTTTTCCCGGTAATCCGTATTTGAC (site GGTGACTCTGT)”, for which the “recombinant UMI read abundance (log10)” value turned out to be 2.47.

In the case of “GGTGAGGCATGGACCGGTTTTCCCGGTAATCCGTATTTGGT (site GGTGAGGCTAC)”, the “recombinant UMI read abundance (log10)” value was 1.1.

On to “GGTGAGTCATGGACCGGTTTTCCCGGTAATCCGTATTTGGC (site GGTGAGTCTGC)”, for which the “recombinant UMI read abundance (log10)” value worked out at 2.23.

Turning to “GGTGCAACATGGACCGGTTTTCCCGGTAATCCGTATTTGTA (site GGTACAACTTA)”, the “recombinant UMI read abundance (log10)” value is 0.01.

In the case of “GGTGCAACATGGACCGGTTTTCCCGGTAATCCGTATTTGTA (site GGTCCAACTTA)”, the “recombinant UMI read abundance (log10)” value stood at 0.00521.

As for “GGTGCAACATGGACCGGTTTTCCCGGTAATCCGTATTTGTA (site GGTGCAACTTA)”, the “recombinant UMI read abundance (log10)” value amounted to 0.221.

For “GGTGCAACATGGACCGGTTTTCCCGGTAATCCGTATTTGTA (site GGTTCAACTTA)”, the “recombinant UMI read abundance (log10)” value came out at 0.00709.

With “GGTGCGTCATGGACCGGTTTTCCCGGTAATCCGTATTTGGA (site GGTGCGTCTTC)”, the “recombinant UMI read abundance (log10)” value was 0.59.

For the sequence “GGTGTTCCATGGACCGGTTTTCCCGGTAATCCGTATTTGGT (site GATGTTCCTAC)”, the “recombinant UMI read abundance (log10)” value worked out at 0.0226.

“GGTGTTCCATGGACCGGTTTTCCCGGTAATCCGTATTTGGT (site GCTGTTCCTAC)”: the “recombinant UMI read abundance (log10)” value was determined as 0.0204.

For “GGTGTTCCATGGACCGGTTTTCCCGGTAATCCGTATTTGGT (site GGTGTTCCTAC)”, the “recombinant UMI read abundance (log10)” value is 0.0141.

Turning to “GGTGTTCCATGGACCGGTTTTCCCGGTAATCCGTATTTGGT (site GTTGTTCCTAC)”, the “recombinant UMI read abundance (log10)” value was 0.

Turning to “GGTTACCCATGGACCGGTTTTCCCGGTAATCCGTATTTGTC (site GGTTACCCTGA)”, the “recombinant UMI read abundance (log10)” value was 0.664.

For the sequence “GGTTCCCCATGGACCGGTTTTCCCGGTAATCCGTATTTGTA (site AGTTCCCCTTA)”, the “recombinant UMI read abundance (log10)” value was found to be 0.0122.

For the sequence “GGTTCCCCATGGACCGGTTTTCCCGGTAATCCGTATTTGTA (site CGTTCCCCTTA)”, the “recombinant UMI read abundance (log10)” value is 0.00861.

In the case of “GGTTCCCCATGGACCGGTTTTCCCGGTAATCCGTATTTGTA (site GGTTCCCCTTA)”, the “recombinant UMI read abundance (log10)” value was found to be 0.0107.

Consider “GGTTCCCCATGGACCGGTTTTCCCGGTAATCCGTATTTGTA (site TGTTCCCCTTA)”, for which the “recombinant UMI read abundance (log10)” value stood at 0.0103.

For “GGTTCCGCATGGACCGGTTTTCCCGGTAATCCGTATTTGAA (site GGTTCCGCTTT)”, the “recombinant UMI read abundance (log10)” value amounted to 0.

Consider “GGTTCTACATGGACCGGTTTTCCCGGTAATCCGTATTTGAG (site GGTTCTACTCT)”, for which the “recombinant UMI read abundance (log10)” value was 0.316.

For “GGTTGGTCATGGACCGGTTTTCCCGGTAATCCGTATTTGCA (site GGTTGGTCTTG)”, the “recombinant UMI read abundance (log10)” value came to 1.59.

For the sequence “GGTTTGTCATGGACCGGTTTTCCCGGTAATCCGTATTTGTG (site GGTTTGTCTCA)”, the “recombinant UMI read abundance (log10)” value turned out to be 1.21.
